Source: PubChem BioAssay AID1259321 (Sanford-Burnham Center for Chemical Genomics, 2017)
pIC50: −log10 of the molar value. Calls of active or inactive are those of the source.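 How the source made its calls: active means half-maximal concentration for changing protein binding to DNA, from the fitted dose curve, below 10 micromolar; inactive means the rest.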

These compounds were tested against Nuclear receptor subfamily 1 group D member 1 (Homo sapiens) (UniProt P20393) (assay: modulators of Rev-erb alpha DNA binding, dose response, biochemical, FITC-DNA, fluorescence polarization (AID 1259321)).
Sequence of Nuclear receptor subfamily 1 group D member 1 (Homo sapiens) (P20393 whole entry, looked up): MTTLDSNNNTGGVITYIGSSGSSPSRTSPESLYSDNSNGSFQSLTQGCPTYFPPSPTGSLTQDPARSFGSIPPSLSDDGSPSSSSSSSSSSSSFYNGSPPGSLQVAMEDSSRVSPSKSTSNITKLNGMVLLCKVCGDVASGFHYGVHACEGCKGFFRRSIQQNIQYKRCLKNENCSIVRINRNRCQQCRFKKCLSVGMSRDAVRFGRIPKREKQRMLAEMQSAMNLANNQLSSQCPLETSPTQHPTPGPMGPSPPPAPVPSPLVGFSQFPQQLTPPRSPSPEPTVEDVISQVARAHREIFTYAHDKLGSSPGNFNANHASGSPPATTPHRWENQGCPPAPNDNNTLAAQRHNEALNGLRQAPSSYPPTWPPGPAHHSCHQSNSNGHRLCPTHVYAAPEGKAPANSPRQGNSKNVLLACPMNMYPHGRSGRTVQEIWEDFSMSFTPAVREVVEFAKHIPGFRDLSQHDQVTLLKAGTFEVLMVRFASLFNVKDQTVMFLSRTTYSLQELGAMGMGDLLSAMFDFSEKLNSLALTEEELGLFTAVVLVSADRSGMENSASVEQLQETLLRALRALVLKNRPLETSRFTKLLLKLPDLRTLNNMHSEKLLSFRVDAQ

IC50	pIC50	SMILES
inactive	–	Cn1c(=O)c(NCCc2ccccc2)c2c3c(cccc31)C(=O)c1ccccc1-2
> 40 µM (inactive)	–	CCCCOc1ccc(C(=O)n2ccc3ccc(-c4ccc5ccn(Cc6ccccc6)c5c4)cc32)cc1
–	5.60	COc1ccc2nc(SCc3cccnc3)c(C#N)cc2c1
> 40 µM (inactive)	–	COc1ccccc1-c1ccc2c(c1)C(C)(Cc1cc(Cl)ccc1C(F)(F)F)C(=O)N2 (stereo unspecified)
–	5.50	CC(C)c1ccc(-c2c(C#N)c(N)nc(SCC(=O)N3CCCCC3)c2C#N)cc1
–	6.01	Cc1ccccc1CNc1ncnc2cc(Cl)ccc12
inactive	–	O=c1sc(N2CCN(c3ccc(F)cc3)CC2)nc2ccsc12
inactive	–	COc1cc2cc(C#N)c(SCC(=O)Nc3cc(C)on3)nc2cc1OC
–	5.15	COc1ccc2c(C)cc(SCC(=O)Nc3ncc(Cl)cc3Cl)nc2c1
inactive	–	COc1ccc(-n2nc(C(=O)NCC(=O)NCc3ccc(F)cc3)c3ccccc3c2=O)cc1OC
–	5.56	COCCN(Cc1cc2cc(C)ccc2n2nnnc12)C(=S)Nc1ccccc1C
–	5.20	CC1(Cc2ccccc2Cl)C(=O)Nc2ccc(OC(F)(F)F)cc21 (stereo unspecified)
–	5.34	COc1cc(SC)ccc1C(=O)Nc1ccc(Cl)cn1
inactive	–	CCN1C(=O)/C(=C/C=C2/SCCN2C)SC1=S
–	5.52	COc1cc(-c2nn3c(COc4ccccc4)nnc3s2)cc(OC)c1OC
–	5.15	COc1ccccc1-c1ccc2c(c1)C(C)(Cc1cccc(F)c1)C(=O)N2 (stereo unspecified)
–	5.30	COc1ccccc1CNC(=O)COC(=O)c1cccnc1SCC(=O)NCc1ccccc1OC
inactive	–	C=CCn1c(=NC(=O)c2ccco2)sc2cc(C(=O)OC)ccc21
–	5.08	CC1CCN(S(=O)(=O)c2ccc3nc(N4CCN(c5ccccc5)CC4)ccc3c2)CC1
–	5.03	CCOC(Cn1c(SCc2cc(C(C)=O)ccc2OC)nc2ccccc2c1=O)OCC
> 40 µM (inactive)	–	Cc1c(Cl)cc(C(C)C)c(O)c1CN1CCOCC1
–	5.11	COc1cccc(-c2nc(CS(=O)(=O)CC(=O)NCCCc3ccccc3)c(C)o2)c1
–	5.32	Cc1c(Br)ccc(NC(=O)Cn2nc(-c3cccs3)ccc2=O)c1C
–	5.48	CCc1cc2cc3c(cc2nc1SCC(=O)Nc1cc(C)on1)OCO3
–	5.15	Fc1ccc2nc(Nc3nc4c(F)cc(F)cc4s3)sc2c1
inactive	–	N#Cc1ccsc1NC(=O)COC(=O)c1cc(Br)ccc1O
inactive	–	C=CCN1C(=O)/C(=C\C=C2\N(C)c3ccccc3C2(C)C)SC1=S

IC50	pIC50	SMILES
inactive	–	COc1ccccc1N(C)S(=O)(=O)c1ccc(C(=O)Nc2nc(C)c(C(C)=O)s2)cc1
–	5.29	COc1ccc(-n2c(SCC(=O)NC3CCCCC3)nc3ccsc3c2=O)cc1
–	5.39	COc1ccc(C)cc1Nc1nc(-c2ccccc2O)nc2ccccc12
> 40 µM (inactive)	–	CCC(=O)c1cn(CC(=O)Nc2cccc(C)c2)c2ccccc12
–	5.46	CCN(CC)c1ccc(/C=C(/C#N)c2nc3ccccc3[nH]2)c(OC(C)C)c1
–	5.25	CCn1c(=O)cc(SCC(=O)Nc2ccc(Cl)cc2)c2ccccc21
inactive	–	COc1ccc(-c2nc(N)ncc2Oc2ccccc2Br)c(O)c1
inactive	–	COc1cc(OC)cc(C(=O)OCc2cc3ccccc3[nH]c2=O)c1
–	5.34	C=CCNC(=O)c1ccc(-c2nc(-c3ccc(Cl)cc3Cl)cs2)cc1
–	5.49	CCN(Cc1nc2cc(Cl)ccc2c(=O)[nH]1)C(=O)c1cc2c(s1)CCCCC2
–	5.70	COc1cc2c3nnc(-c4ccc(F)cc4)c-3cn(Cc3ccccc3F)c2cc1OC
–	5.58	Cc1cc(/C=C(/C#N)C(=O)Nc2ccc(Cl)cc2)c(C)n1-c1cccnc1
–	5.11	COCCCn1c(C(=O)NCCC2=CCCCC2)cc2c(=O)n3cccc(C)c3nc21
–	5.83	Cc1ccc2nsnc2c1NC(=O)c1sc2ccccc2c1Cl
–	5.34	CCN(CC)C(=O)Cn1c(C)c(/C=C/c2cc[n+](C)cc2)c2ccccc21
–	5.50	COC(=O)Cn1c(=NC(=O)CCS(=O)(=O)c2ccccc2)sc2c(OC)ccc(OC)c21
–	5.68	Oc1ccccc1-c1nc(N2CCCC2)c2ccccc2n1
inactive	–	Cc1ccc(CNc2nc3ccccc3n3nnnc23)cc1
–	5.35	N#Cc1ccccc1N1CCN(C(=O)C2CCN(c3ncnc4c3sc3cccc(F)c34)CC2)CC1
–	6.40	COC(=O)Cn1c(=NC(=O)c2nc3ccccc3s2)sc2cc(S(C)(=O)=O)ccc21
> 40 µM (inactive)	–	COc1ccc(NC(=O)/C(C#N)=C\c2ccc(N3CCOCC3)o2)cc1
> 40 µM (inactive)	–	COc1cc2[nH]c(=S)nc(NCCc3ccc(C)cc3)c2cc1OC
–	5.47	O=c1c2ccccc2sc2ccc(Cl)cc12
inactive	–	Cc1coc(NC(=O)CSc2nc(-c3ccc(Cl)cc3)cc(C(F)(F)F)c2C#N)n1
> 40 µM (inactive)	–	CCc1cc2cc3c(cc2nc1SCC(=O)Nc1nccs1)OCO3
–	6.33	COc1ccc(C#Cc2ccc(C3=CC(=O)CC(C)(C)C3=O)cc2)cc1
–	5.72	Cc1ccc(-c2nc(NC(=O)CSc3cc(C)c4ccccc4n3)ns2)cc1

The next lines start with the compound.

SMILES	IC50	pIC50
COC(=O)c1ccc(Cn2ccc3ccc(-c4ccc5ccn(C(=O)c6ccc(C)cc6)c5c4)cc32)cc1	–	5.81
Brc1cc(Br)c2ncnc(N3CCCCC3)c2c1	–	6.00
CCCN1C(=O)S/C(=C/c2ccc(N3CCOCC3)o2)C1=O	–	5.23
COc1ccc(-c2cc(-c3ccccc3)c(C#N)c(SCC(=O)Nc3ncc(C)s3)n2)cc1	–	5.45
CCC(C)NC(=O)Cc1c(OC)ccc2cc(Br)ccc12 (stereo unspecified)	–	5.09
O=c1c2ccccc2nc2sc3ccccc3n12	> 40 µM (inactive)	–
N#CCNC(=O)c1nn2c(C(F)(F)F)cc(-c3ccccc3)nc2c1Br	–	5.45
CC(C)(C)C(=O)Nc1cc(S(=O)(=O)N2CCCCC2)ccc1N1CCCCC1	> 40 µM (inactive)	–
CC(=O)Nc1ccc(O)c(-c2nc3ccccc3s2)c1	inactive	–
O=C(Nc1ccc2c(c1)C(=O)NC2=O)c1ccc2ncsc2c1	–	5.64
CCOC(=O)CSc1nc2cc3c(cc2cc1C#N)OCCO3	> 40 µM (inactive)	–
COc1ccc(NC(=O)COC(=O)c2ccc3c(c2)OCO3)c(OC)c1	> 40 µM (inactive)	–
Cc1ccc(N(Cc2cc3cc(C)ccc3[nH]c2=O)C(=O)c2cccs2)cc1	–	5.26
Cc1ccc(Cl)cc1N1CCN(S(=O)(=O)c2ccc(-c3ccc(=O)[nH]n3)o2)CC1	inactive	–
Cc1ccc(CNC(=O)c2cc3c(=O)n(C)c4ccccc4c3n2C)cc1	inactive	–
COc1cccc(-c2nc(CS(=O)(=O)CC(=O)NCc3ccc(Cl)cc3)c(C)o2)c1	> 40 µM (inactive)	–
COc1ccccc1C(=O)Nc1nnc(-c2ccc(F)cc2)s1	–	5.50
Cc1sc2nc(SCC(=O)NCc3ccco3)n(CCc3ccccc3)c(=O)c2c1C	> 40 µM (inactive)	–
CN(C)c1nc(-c2cccnc2)nc(-c2ccccc2)c1C#N	inactive	–
Cc1nc(-c2ccccc2)nc2[nH]c(-c3ccccc3)cc(=O)c12	inactive	–
CCN1C(=O)/C(=C\N2CCN(c3ccc(F)cc3)CC2)SC1=S	> 40 µM (inactive)	–
CCOc1cc2[nH]c(=S)n(CCC(=O)N3CCc4ccccc4C3)c(=O)c2cc1OCC	inactive	–
CCSc1nnc(NC(=O)c2cc3c(s2)CCCC3)s1	–	5.80
CCCCOC(=O)CSc1nc(N)c(C#N)c(-c2ccc(OCC)cc2)c1C#N	inactive	–
Cc1ccc(/C=C/c2ccc(N(C)C)cc2)[n+](C)c1	–	5.04
CCCCCCc1cc2cc(C(=O)Nc3ccccc3)c(=O)oc2cc1O	> 40 µM (inactive)	–

SMILES	IC50	pIC50
O=C(OCCN1C(=O)c2cccc3c(N4CCOCC4)ccc(c23)C1=O)c1ccc(Cl)cc1	–	5.29
COc1ccc2nc(SC)c(C#N)cc2c1	inactive	–
C=CCN1C(=O)/C(=C2/Sc3ccc(OC)cc3N2C)SC1=NCc1ccccc1	–	5.20
Cc1cc(C(F)(F)F)c2c(N)c(C(=O)Nc3cc(C)on3)sc2n1	inactive	–
Cc1ccc2nc(/C(C#N)=C/c3ccc(-c4ccccc4C(=O)O)o3)[nH]c2c1	inactive	–
Cc1ccc(-c2nc3ccccc3s2)cc1NC(=O)c1cc(-n2cnnc2)ccc1Cl	inactive	–
COc1cc(/C=C2\SC(=O)N(CCNC(=O)c3sc4cc(F)ccc4c3Cl)C2=O)cc(OC)c1OC	–	5.31
O=C(CSc1ncnc2c1oc1ccccc12)Nc1ccccc1F	–	5.11
N#Cc1c(-c2ccc(F)cc2)cc(C2CC2)nc1SCC(=O)c1cccs1	> 40 µM (inactive)	–
O=C(O)CN1C(=O)/C(=C\c2cn(CC(=O)N3CCOCC3)c3ccccc23)SC1=S	–	5.00
Cc1ccc(-c2csc3nc[nH]c(=S)c23)cc1C	–	5.68
CC(=O)c1sc(NC(=O)c2oc3ccc(F)cc3c2C)nc1C	–	5.08
Cc1nn(-c2ccc(Cl)cc2)c2sc(C(=O)c3c(N)n(C)c(=O)n(C)c3=O)cc12	–	5.08
CC[n+]1ccc(/C=C/c2c[nH]c3ccccc23)cc1	inactive	–
O=C(c1cccs1)N1C(=O)c2cccc3cccc1c23	–	5.37
Cc1nn(-c2ccc(Cl)c(Cl)c2)c(=O)c2ccccc12	–	5.29
O=c1c2ccccc2n2c(-c3ccc(F)cc3)nnc2n1Cc1ccccc1	inactive	–
CCN(c1cccc(C)c1)S(=O)(=O)c1cc2c3c(c1)CCC(=O)N3CCC2	inactive	–
O=C(COC(=O)c1ccccc1SCC(=O)NC1CCCCC1)NC1CCCCC1	–	5.32
CCSC1=N/C(=C\C=C2/Oc3ccccc3N2CC)C(=O)S1	–	5.03
NS(=O)(=O)c1ccc(CCNC(=O)c2cc(-c3ccccn3)nc3ccc(Br)cc23)cc1	–	5.42
N#Cc1c(N)nc(SCC(=O)C23CC4CC(CC(C4)C2)C3)c(C#N)c1-c1ccc(Cl)cc1	> 40 µM (inactive)	–
COc1cc(OC)cc(-c2c(C#Cc3ccsc3)c3cc(-c4ccc(SC)cc4)ccc3n2C)c1	–	5.10
NS(=O)(=O)c1ccc(CNC(=O)c2cc(-c3cccnc3)nc3ccc(Br)cc23)cc1	–	6.30
COc1ccc(-n2nc(C(=O)NCC(=O)Nc3cc(Cl)c(OC)cc3OC)c3ccccc3c2=O)cc1	inactive	–
COc1ccc(C(C)(C)C)cc1NC(=O)C1=CC=CN2CCS(=O)(=O)N=C12	–	5.27
